Measurements published in BigSolDB 2.1.

Nc1nc(Cl)c2[nH]cnc2n1
Settings | solubility (mole fraction)
in 1,4-dioxane, 288.15 K | 7.48e-05
in 1,4-dioxane, 293.15 K | 9.16e-05
in 1,4-dioxane, 298.15 K | 0.000112
in 1,4-dioxane, 303.15 K | 0.000135
in 1,4-dioxane, 308.15 K | 0.000162
in 1,4-dioxane, 313.15 K | 0.000195
in 1,4-dioxane, 318.15 K | 0.000236
in 1,4-dioxane, 323.15 K | 0.000277
in 1,4-dioxane, 328.15 K | 0.000325
in 1,4-dioxane, 333.15 K | 0.000396
in 2-butanone, 278.15 K | 0.000178
in 2-butanone, 283.15 K | 0.000214
in 2-butanone, 288.15 K | 0.000256
in 2-butanone, 293.15 K | 0.000303
in 2-butanone, 298.15 K | 0.000352
in 2-butanone, 303.15 K | 0.000408
in 2-butanone, 308.15 K | 0.000476
in 2-butanone, 313.15 K | 0.000547
in 2-butanone, 318.15 K | 0.000626
in 2-butanone, 323.15 K | 0.000723
in 2-butanone, 328.15 K | 0.00084
in 2-butanone, 333.15 K | 0.001
in DMF, 278.15 K | 0.00226
in DMF, 283.15 K | 0.00266
in DMF, 288.15 K | 0.00313
in DMF, 293.15 K | 0.00366
in DMF, 298.15 K | 0.00427
in DMF, 303.15 K | 0.00497
in DMF, 308.15 K | 0.00577
in DMF, 313.15 K | 0.00668
in DMF, 318.15 K | 0.00771
in DMF, 323.15 K | 0.00888
in DMF, 328.15 K | 0.01
in DMF, 333.15 K | 0.0121
in DMSO, 298.15 K | 0.0108
in DMSO, 303.15 K | 0.0127
in DMSO, 308.15 K | 0.015
in DMSO, 313.15 K | 0.0172
in DMSO, 318.15 K | 0.0204
in DMSO, 323.15 K | 0.024
in DMSO, 328.15 K | 0.0284
in DMSO, 333.15 K | 0.0331
in ethanol, 278.15 K | 4.39e-05
in ethanol, 283.15 K | 5.42e-05
in ethanol, 288.15 K | 6.87e-05
in ethanol, 293.15 K | 8.56e-05
in ethanol, 298.15 K | 0.000105
in ethanol, 303.15 K | 0.000125
in ethanol, 308.15 K | 0.000153
in ethanol, 313.15 K | 0.000184
in ethanol, 318.15 K | 0.000218
in ethanol, 323.15 K | 0.000258
in ethanol, 328.15 K | 0.000303
in ethanol, 333.15 K | 0.000357
in ethylene glycol, 278.15 K | 0.000549
in ethylene glycol, 283.15 K | 0.000634
in ethylene glycol, 288.15 K | 0.000719
in ethylene glycol, 293.15 K | 0.000823
in ethylene glycol, 298.15 K | 0.000923
in ethylene glycol, 303.15 K | 0.00104
in ethylene glycol, 308.15 K | 0.00117
in ethylene glycol, 313.15 K | 0.0013
in ethylene glycol, 318.15 K | 0.00145
in ethylene glycol, 323.15 K | 0.0016
in ethylene glycol, 328.15 K | 0.00177
in ethylene glycol, 333.15 K | 0.00198
in isobutanol, 278.15 K | 8.8e-05
in isobutanol, 283.15 K | 0.000106
in isobutanol, 288.15 K | 0.000131
in isobutanol, 293.15 K | 0.000155
in isobutanol, 298.15 K | 0.00018
in isobutanol, 303.15 K | 0.000211
in isobutanol, 308.15 K | 0.000244
in isobutanol, 313.15 K | 0.00028
in isobutanol, 318.15 K | 0.000325
in isobutanol, 323.15 K | 0.000373
in isobutanol, 328.15 K | 0.000433
in isobutanol, 333.15 K | 0.000499
in isopropanol, 278.15 K | 5.99e-05
in isopropanol, 283.15 K | 7.43e-05
in isopropanol, 288.15 K | 9.38e-05
in isopropanol, 293.15 K | 0.000114
in isopropanol, 298.15 K | 0.000137
in isopropanol, 303.15 K | 0.000165
in isopropanol, 308.15 K | 0.000195
in isopropanol, 313.15 K | 0.00023
in isopropanol, 318.15 K | 0.000266
in isopropanol, 323.15 K | 0.000314
in isopropanol, 328.15 K | 0.000363
in isopropanol, 333.15 K | 0.000431
in methanol, 278.15 K | 3.09e-05
in methanol, 283.15 K | 3.96e-05
in methanol, 288.15 K | 4.94e-05
in methanol, 293.15 K | 6.14e-05
in methanol, 298.15 K | 7.53e-05
in methanol, 303.15 K | 9.43e-05
in methanol, 308.15 K | 0.000112
in methanol, 313.15 K | 0.000137
in methanol, 318.15 K | 0.000168
in methanol, 323.15 K | 0.000198
in methanol, 328.15 K | 0.000233
in methanol, 333.15 K | 0.000279
in n-butanol, 278.15 K | 0.000135
in n-butanol, 283.15 K | 0.000159
in n-butanol, 288.15 K | 0.000185
in n-butanol, 293.15 K | 0.00021
in n-butanol, 298.15 K | 0.000242
in n-butanol, 303.15 K | 0.000276
in n-butanol, 308.15 K | 0.000316
in n-butanol, 313.15 K | 0.000358
in n-butanol, 318.15 K | 0.000409
in n-butanol, 323.15 K | 0.000461
in n-butanol, 328.15 K | 0.000515
in n-butanol, 333.15 K | 0.000586
in n-propanol, 278.15 K | 0.000103
in n-propanol, 283.15 K | 0.000122
in n-propanol, 288.15 K | 0.000149
in n-propanol, 293.15 K | 0.000174
in n-propanol, 298.15 K | 0.000202
in n-propanol, 303.15 K | 0.000234
in n-propanol, 308.15 K | 0.000274
in n-propanol, 313.15 K | 0.000314
in n-propanol, 318.15 K | 0.000362
in n-propanol, 323.15 K | 0.00042
in n-propanol, 328.15 K | 0.000472
in n-propanol, 333.15 K | 0.000539
in water, 278.15 K | 3.28e-06
in water, 283.15 K | 4.66e-06
in water, 288.15 K | 6.53e-06
in water, 293.15 K | 9.04e-06
in water, 298.15 K | 1.24e-05
in water, 303.15 K | 1.68e-05
in water, 308.15 K | 2.26e-05
in water, 313.15 K | 3e-05
in water, 318.15 K | 3.96e-05
in water, 323.15 K | 5.17e-05
in water, 328.15 K | 6.7e-05
in water, 333.15 K | 8.62e-05
